Experimental data from patent US8258309B2, “Azapeptide derivatives” (priority 2007, dated 2012).

Assays:
[1] = Chimp pharmacokinetics Run A, IV or PO co-dosing of atazanavir and Compounds 114, 120, 122; type: in vivo, chimpanzee; details: for concentration at 24 h: concentration detected intact in urine
Protocol: Chimp Pharmacokineties. Run A: A 4 mg/mL solution of atazanavir and each of Compounds 114, 120 and 122 were prepared in 10% DMI (dimethyl isosorbide), 15% EtOH, 35% PG in D5W. Specifically, for each compound, 240 mgs of compound was dissolved in a solution composed of 6 mL of DMI, 9 mL of EtOH and 21 mL PG. Once the compound was fully dissolved, 24 mL of D5W was added and the solution mixed.
Fifty-five mL of each drug solution is then combined and the mixture was sterile filtered using a 0.2 μm filter. This produced 220 mL of a 1:1:1:1 mixture atazanavir:Compound 114:Compound 120:Compound 122. The final concentration of each drug in the solution was 1 mg/mL. Each animal received 50 mL of this solution through either IV or PO routes.
(§1) Four chimps (two male and two female) were used in this study and were fasted overnight prior to administration of the compound solution. Animals were sedated with ketamine and/or telazol prior to dosing. Intravenous dosing was achieved by IV infusion over 30 minutes.
(§2) Approximately 4.5 mL of blood was collected into vacutainer tubes with sodium heparin as an anticoagulant at 0 (preinfusion), 15 min., 29.5 min (immediately before the end of the infusion), and then at 6, 15, 30, and 45 minutes, and 1, 2, 4, 6, 8, 10, 12, 24 hours after the infusion is stopped. A similar procedure was used to collect blood after oral dosing with samples taken at 0 (predose), 15, and 30 minutes, and at 1, 1.5, 2, 4, 6, 8, 10, 12, 24 hours postdose. Following sample collection, the vacutainer tubes were rocked by hand several times to insure adequate mixing. Blood samples were placed immediately on wet ice and centrifuged within 1 hour from time of collection. Following centrifugation, the resulting plasma was stored frozen at −70° C. until analysis. The results are summarized in FIGS. 4 and 5 and tables 6 and 7.

in vivo = details: chimpanzee, po
Protocol: as §1, §2
Run B: Same as Run A, except the dose was 150 mg orally of each of atazanavir and compounds 114 and 120, and the vehicle was 10 percent ethanol, 40 percent polypropylglycol in 2.5 percent citric acid.

Compound	concentration detected intact in urine ([1]; chimpanzee, in vivo, iv, 24 h)	concentration at 24 h ([1]; chimpanzee, in vivo, iv)	concentration detected intact in urine ([1]; chimpanzee, in vivo, po, 24 h)	concentration at 24 h ([1]; chimpanzee, in vivo, po)	concentration detected intact in urine (in vivo; 24 h)	concentration at 24 h (in vivo; concentration detected intact in urine)	Ratio of urine concentration, compound:Atazanavir ([1]; chimp A242E, PO, 24 hours, Run A)	Ratio of urine concentration, compound:Atazanavir ([1]; chimp A336C, IV, 24 hours, Run A)	Ratio of urine concentration, compound:Atazanavir ([1]; chimpanzee, in vivo, iv, 24 h)	Ratio of urine concentration, compound:Atazanavir ([1]; chimpanzee, in vivo, po, 24 h)
COC(=O)N[C@H](C(=O)N[C@@H](Cc1ccccc1)[C@@H](O)CN(Cc1ccc(-c2ccccn2)cc1)NC(=O)[C@@H](NC(=O)OC)C(C)(C)C)C(C)(C)C [Atazanavir, atazanavir, reference compound]	1790 ng/mL	2000 ng/mL	516 ng/mL	569 ng/mL	3260 ng/mL	1640 ng/mL				
[2H]C([2H])([2H])OC(=O)N[C@H](C(=O)N[C@@H](Cc1ccccc1)[C@@H](O)CN(Cc1ccc(-c2ccccn2)cc1)NC(=O)[C@@H](NC(=O)OC([2H])([2H])[2H])C(C([2H])([2H])[2H])(C([2H])([2H])[2H])C([2H])([2H])[2H])C(C([2H])([2H])[2H])(C([2H])([2H])[2H])C([2H])([2H])[2H] [Compound 122, 1,14-Di(methyl-d3)(3S,8S,9S,12S)-3,12-bis[(1,1-dimethylethyl)-d9]-8-hydroxy-4,11-dioxo-9-(phenylmethyl)-6-[[4-(2-pyridinyl)phenyl]methyl]-2,5,6,10,13-pentaazatetradecanedioate]	3250 ng/mL	3130 ng/mL	1180 ng/mL	1280 ng/mL			2.25	1.82	1.57	2.29
